Test results published in patent publication US3933838A, “5-Substituted 2-amino-4-arylthiazoles” (Instituto Luso Farmaco d'Italia S.r.l., priority 1972, dated 1976).

How the values were obtained:
adult rats [1] = assay: anti-inflammatory action, granuloma from an extraneous substance in rats; assay type: in vivo; conditions: Rattus norvegicus, 168 h; oral × 7 days
Description: (§1) The anti-inflammatory action has been studied in adult rats by using the carragenin oedema test (Proc. Soc. exp. Biol. Med. 1962, 111 : 544) and the granuloma from an extraneous substance (J. Amer. Pharm. Ass., Sci. Ed. 1957, 46 : 515).
(§2) Whenever possible the ED50 values have been calculated.

mice [2] = assay: analgesic action, stretching acetic acid, mice; assay type: in vivo; conditions: oral; for ED50: Mus musculus
Description: (§3) The analgesic action has been assessed in rats (Arch. int. Pharmacodyn. 1957, 111 : 409) and in mice (Boll. Chim. Farm. 1968, 107 : 29), the antipyretic action in rats (J. Pharmacol. exp. Ther. 1963, 141 : 369); and the anti-cough action in guinea pigs made to inhale 4% ammonia.
as §2

LD50 mice = conditions: mouse, in vivo
guinea pigs = assay: anti-cough action in guinea pigs made to inhale 4% ammonia; assay type: in vivo; conditions: intraperitoneal
Description: as §3, §2

mice [3] = assay: analgesic action, tail clip, mice; assay type: in vivo; conditions: oral
Description: as §3, §2

rats [4] = assay: antipyretic action in rats; assay type: in vivo; conditions: oral
Description: as §3, §2

rats [5] = assay: LD50 rats; assay type: in vivo; conditions: oral
LD50 rats = assay type: in vivo; conditions: rat, in vivo
adult rats [6] = assay: anti-inflammatory action, carragenin oedema test in rats; assay type: in vivo; conditions: for ED50: Rattus norvegicus, read-out: anti-inflammatory action rats ED50, carrageenin oedema
Description: as §1, §2

rats [7] = assay: analgesic action, Randall Selitto, rats; assay type: in vivo; conditions: oral; for ED50: Rattus norvegicus
Description: as §3, §2

rats [8] = assay: anti-ulcer action in rats kept without food for 24 hours and motionless for 4 hours; assay type: in vivo; conditions: 10 mg/kg intraperitoneal
Protocol: The anti-ulcer property has been studied in rats kept without food for 24 hours and motionless for 4 hours (Therapie 1960, 15 : 1096).

[9] = intraperitoneal, 200 mg/kg maximum dose

SMILES | ED50 (adult rats [1]) | ED50 (mice [2]) | LD50 (LD50 mice; ip, intraperitoneal) | LD50 (LD50 mice; oral) | anti-coughing action, effect at maximum dose administered (guinea pigs; 200 mg/kg maximum dose) | tail clip, effect at maximum dose administered (mice [3]; 200 mg/kg maximum dose) | LD50 (LD50 rats; ip, intraperitoneal) | LD50 (LD50 rats; po) | ED50 (adult rats [6]; ip, intraperitoneal) | ED50 (adult rats [6]; oral) | ED50 (rats [7]) | anti-ulcer action, protected rats in % (rats [8]) | anti-ulcer action, reduction in number of ulcers in % (rats [8]) | carrageenin oedema, effect at maximum dose administered (adult rats [6]; [9]) | stretching acetic acid, effect at maximum dose administered (mice [2]; 100 mg/kg maximum dose) | also measured
O=C(O)Cc1sc(Nc2ccccc2)nc1-c1ccc(Cl)cc1 [LR 330, (2-phenylamino-4-p-chlorophenyl-thiazol-5-yl)-acetic acid] | 400 mg/kg | 75 mg/kg | > 1000 mg/kg | > 3000 mg/kg | .phi. | .phi. | > 1000 mg/kg | > 2000 mg/kg | 75 mg/kg | 400 mg/kg | 200 mg/kg |  |  |  |  | anti-pyretic action, effect at maximum dose administered (rats [4]; 200 mg/kg maximum dose): .phi.; LD50 (rats [5]): > 3000 mg/kg
Nc1nc(-c2ccc(Cl)cc2)c(CC(=O)O)s1 [LR 331, (2-amino-4-p-chlorophenyl-thiazol-5-yl)-acetic acid] | 300 mg/kg | 132 mg/kg | 800 mg/kg | > 5000 mg/kg |  |  | 840 mg/kg | > 1000 mg/kg | 140 mg/kg | 300 mg/kg |  | 30% | 52% |  |  | anti-coughing action, effect at maximum dose administered (guinea pigs; 50 mg/kg maximum dose): 17%; tail clip, effect at maximum dose administered (mice [3]; 175 mg/kg maximum dose): .phi.; anti-pyretic action, effect at maximum dose administered (rats [4]; 400 mg/kg maximum dose): .phi.; Randall Selitto, effect at maximum dose administered (rats [7]; 175 mg/kg maximum dose): 15%
O=C(O)Cc1sc(NC(=O)Nc2ccccc2)nc1-c1ccc(Cl)cc1 [LR 364, [2-(phenylamino-carbonylamino)-4-p-chlorophenyl-thiazol-5-yl]-acetic acid] |  |  | > 1000 mg/kg |  | .phi. | .phi. |  |  |  |  |  | 30% | 59% | .phi. |  | stretching acetic acid, effect at maximum dose administered (mice [2]; 200 mg/kg maximum dose): 31%
O=C(O)Cc1sc(Nc2c(Cl)cccc2Cl)nc1-c1ccccc1 [LR 396, [2-n-(2', 6'-dichlorophenyl)-amino-4-phenyl-thiazol-5-yl]-acetic acid] |  |  | > 1000 mg/kg |  |  |  |  |  |  |  |  | 40% | 45% | .phi. | 26% | 
CCN(CC)c1nc(-c2ccc(Cl)cc2)c(CC(=O)O)s1 [LR 407, (2-n,n-diethylamino-4-p-chlorophenyl-thiazol-5-yl)-acetic acid] | 170 mg/kg | 26 mg/kg | 400 mg/kg | 1260 mg/kg |  |  | 385 mg/kg | > 1500 mg/kg | 60 mg/kg | 120 mg/kg | > 400 mg/kg |  | 23% |  |  | ED50 (guinea pigs; Cavia porcellus, ip, read-out: anti-coughing action guinea pigs ED50): 34 mg/kg; ED50 (mice [3]; Mus musculus): 48 mg/kg; ED50 (rats [4]; Rattus norvegicus, read-out: anti-pyretic action rats ED50): 73 mg/kg
CCN(CC)CCNC(=O)Cc1sc(N)nc1-c1ccc(Cl)cc1 [LR 450, (2-amino-4-p-chlorophenyl-thiazol-5-yl)-N-(N',N' diethylaminoethyl)-acetamide] | 100 mg/kg |  | 43 mg/kg | 238 mg/kg |  |  | 47 mg/kg | 915 mg/kg |  |  |  | 65% | 69% |  | 27% | anti-coughing action, effect at maximum dose administered (guinea pigs; 12 mg/kg maximum dose): .phi.; tail clip, effect at maximum dose administered (mice [3]; 50 mg/kg maximum dose): .phi.; anti-pyretic action, effect at maximum dose administered (rats [4]; 100 mg/kg maximum dose): 38%; carrageenin oedema, effect at maximum dose administered (adult rats [6]; intraperitoneal, 6 mg/kg maximum dose): 36%; carrageenin oedema, effect at maximum dose administered (adult rats [6]; oral, 100 mg/kg maximum dose): 35%; Randall Selitto, effect at maximum dose administered (rats [7]; 100 mg/kg maximum dose): 18%
